Source: patent publication US20240217946A1, “ANTIDEPRESSANT AND ANXIOLYTIC SUBSTITUTED CINNAMAMIDE COMPOUND” (TASLY PHARMACEUTICAL GROUP CO., LTD., priority 2021, published 2024)
Entries after “also recorded” stand apart in the source; their conditions may differ. Where a name gives a salt, the structure may show the parent alone. Marks after values point to notes of the source that are not given here.

Key:
C57 BL/6J male mice = assay: Forced swimming experiment in mice; format: in vivo; details: 24 h after a single i.p. administration; fluoxetine 10 mg/kg, esketamine 10 mg/kg, M2 3-30 mg/kg
Excerpt: 1) Forced Swimming Experiment: Also Known as Despair Experiment, an Experiment Usually Used to Test Depression-Like Behavior of Mice
• Animal: C57 BL/6J male mice (18-20 g)
Intraperitoneal injection (i.p)

SD rats = assay: Vogel drinking conflict experiment in rats, single administration; format: in vivo; details: 30 min after single dose, punishment stage 3 min, n = 8
Method: 75 male SD rats, with the body weight of 180-220 g, were fed adaptively for 1 week, water deprived for 24 h for training period test. The animals screened to be qualified were randomly divided into 7 groups (a solvent control group, estazolam group, compound M2 group, compound II-3 group, compound II-4 group, compound II-5 group and compound II-10 group) according to their body weight, with 8 rats in each group. […] results of 3.1: the positive drug estazolam was administered intragastrically at 1.24 mg/kg; and the solvent control group was gavaged with an equal volume of solvent. The grouped animals were continued to be water deprived for 24 h and were given a single dose, and tested in a punishment experiment 30 min after the single dose.
The experiment was carried out in two stages. The first stage is a training stage, in which 24 h after water deprivation, animals were placed in an operation box separately, and were allowed to fully explore until they found the bottle mouth and started to lick water (with an intensity of electric shock being 0 mA), a counter automatically recorded the number of licks within 3 min, and the animals that licked water less than 300 times were eliminated.
Observation index: the number of water licks of rats in the punishment stage.
(§1) Data was expressed as mean±standard (mean±SD) difference, and statistics of data differences were made by one-way analysis of variance (ANOVA) or nonparametric test, and differences between groups were determined by P<0.05.

ICR mice = assay: Elevated plus maze experiment in mice, single administration; format: in vivo; details: for OE % / OT %: 30 min after single administration
Method: 50 male ICR mice were randomly divided into 5 groups (a solvent control group, estazolam group, M2 high dosage group, M2 medium dosage group, M2 low dosage group), with 10 mice in each group. The compound M2 high, medium and low dosage groups were intragastrically administered at 20 mg/kg. 10 mg/kg and 5 mg/kg, respectively; the positive drug estazolam was intragastrically administered at 2.5 mg/kg; and the solvent control group was gavaged with an equal volume of solvent. Behavior test was performed in each group 30 min after single administration. The experiments were required to be conducted between 8:00 am and […], and all animals entered the test laboratory on the previous day.
The laboratory was dimly lit (with the lowest brightness that can distinguish the subtle activities of mice at a distance of 1.5 m) and the brightness was kept constant, with a room temperature of about 20° C., and kept quiet. Before the maze test, each mouse was placed in a 35 cm*10 cm*5 cm plastic box and left to explore freely for 5 min and then quickly placed at the central platform of an elevated plus maze, with its head facing one of the open arms, and the following indexes were recorded upon release. Each mouse was tested for 5 min. Observers observed and recorded animal activities at a distance of 1.5 m. At intervals, the maze was wiped with a wet cloth to remove feces, and then wiped with a dry cloth before a next mouse was tested.
• (1) The number of open arm entries (OE): the number of entries into any open arm, based on the fact that all four claws of the mouse entered the arm, and a complete exit of one claw from the arm indicated the completion of the entry activity; • (2) open arm time (OT): the time of entering an open arm, with the unit of seconds; • (3) the number of close arm entries (CE): the number of entries into any close arm, based on the fact that all four claws of the mouse entered the arm; • (4) close arm time (CT): the time of entering a close arm, with the unit of seconds; • (5) percentage of open arm time: OT %=OT/(OT+CT)*100%; and • (6) percentage of open arm entries: OE %=OE/(OE+CE)*100%.
70 male ICR mice were randomly divided into 7 groups (a solvent control group, estazolam group, compound M2 group, compound II-3 group, compound II-4 group, compound II-5 group, and compound II-10 group), with 10 mice in each group. The dosage of M2 and its four structurally similar compounds was determined as 20 mg/kg according to the experimental results of 3.1: the positive drug estazolam was administered intragastrically at 2.5 mg/kg; and the solvent control group was gavaged with an equal volume of solvent. Behavior test was performed in each group 30 min after single administration. The experiments were required to be conducted between 8:00 am and […], and all animals entered the test laboratory on the previous day.
The behavioral test method and behavioral observation indexes were the same as those in 3.1.
as §1

mice [1] = details: Patent C; cited from earlier work
mice [2] = details: 10 mg/kg continuously for 7 days; cited from earlier work
[3] = system: NA reuptake in rat brain synaptosomes; assay: 3H-NA reuptake by rat brain synaptosomes; format: biochemical; details: 100 μM, positive control
Excerpt: At present, it is believed that absolute or relative deficiencies of the central monoamine neurotransmitters 5-hydroxytryptamine (5-HT), norepinephrine (NA) and dopamine (DA) are closely related to depression and anxiety.
Synaptosomes were separated using methods in literature to prepare brain synaptosomes. SD rats were rapidly decapitated with a small animal decapitator. After decapitation, brains were taken out quickly and precooled in an ice-water mixture, and the pia mater and vascular tissue were removed. Brain tissue was taken out. 10 times volume (ml/g) of 10 mM Tris HCl buffer (containing 0.32 M sucrose, pH 7.4) was added, an ultrasonic cell pulverizer was used for homogenization (maintaining at a low temperature), and the brain tissue was homogenized and centrifuged for 10 min (4° C., 1,000 g). After balanced centrifugation (1500 g, 10 min) at 4° C., precipitate was discarded, then supernatant was taken, and centrifugation (20000 g) was performed again for 30 min. The supernatant was discarded and the precipitate, i.e. crude extract of synaptic corpuscles, was retained. The precipitate was further suspended in 0.32 M cold sucrose solution and then carefully laid on 1.2 M and 0.8 M (10 ml each) cold sucrose gradient solutions which had been laid sequentially on the bottom of the tube, followed by balanced centrifugation (38000 g) at 4 °C for 60 min. A suspension band at the 0.8-1.2 M sucrose interface was carefully collected with a puncture needle, which was placed in 10 ml of 0.32 M cold sucrose solution and mixed well, and equilibrium centrifuged (20000 g) at 4 °C for 30 min. The precipitate was refined brain synaptosomes. […]
(§2) The percentage inhibition of isotope ligand binding by each compound was calculated according to the following equation: […]

[4] = system: pyramidal neurons in prefrontal PrL brain area; assay: Brain slice electrophysiology, sEPSC of mPFC pyramidal neurons; format: cell-based, mice; details: antagonist at working concentration 10 μM
Excerpt: 2) Brain Slice Electrophysiological Experiment: For Detecting Effect of Compound M2 on mPFC Excitatory Synaptic Transmission • Animal: neonatal mice C57 BL/6J (20-30 days). • Instrument: vibratome (Leica), brain slice electrophysiological system (Axon). • Brain slice electrophysiological experiment method • SEPSC experiment method: Neonatal C57 mice were anesthetized and then perfused with artificial cerebrospinal fluid (ACSF). After decapitation, brain tissue was taken quickly and sliced by vibratome, with a thickness of a brain slice being 300 μm. After the brain slices were incubated at 28 °C for 1 h, whole-cell recordings of mPFC pyramidal neurons were made using a voltage clamp (−70 mV) through a brain slice electrophysiological system. The baseline recording time was 6 min, and then a drug to be tested was added through a perfusion system (the drug was dissolved using ACSF), and the recording time after adding the drug was 6-10 min. Recorded data was analyzed using Minianalysis software, and effects of the drug to be tested on sEPSC frequency and amplitude of medial prefrontal pyramidal neurons in C57 mice were compared.
All data analysis was done using spss data processing software, and data was expressed by Mean±s.e.m. One-way ANOVA was used to analyze the effect of compound M2 and the effect of compound M2 under the action of dopamine receptor antagonists on sEPSC current: and paired t test was used to analyze sEPSC experimental results. * was marked when p<0.05.
During the experiment, 10 μM Bicuculine was added to the solution to block GABA receptor, so as to record sEPSC of pyramidal neurons. The experiment investigated effects of different concentrations of compound M2 on spontaneous excitatory postsynaptic […] (sEPSC) of pyramidal neurons in prefrontal PrL brain area, as shown in FIG. 2.

[5] = system: DA reuptake in rat brain synaptosomes; assay: 3H-DA reuptake by rat brain synaptosomes; format: biochemical; details: 100 μM, positive control
Excerpt: At present, it is believed that absolute or relative deficiencies of the central monoamine neurotransmitters 5-hydroxytryptamine (5-HT), norepinephrine (NA) and dopamine (DA) are closely related to depression and anxiety. This experiment was designed to evaluate, by the method of in vitro monoamine reuptake, the inhibitory effect of two samples of tested compound I-5 and compound M2 on reuptake of 5-HT, NA and DA in rat brain synaptosomes. The preparation of in vitro SD rat brain synaptosomes and isotopic tracer method were employed to investigate IC50 of inhibition of monoamine reuptake of DA, 5-HT and NA in two tested samples, in order to explore the possible mechanism of antidepressant and anxiolytic effects of compound I-5 and compound M2.
Synaptosomes were separated using methods in literature to prepare brain synaptosomes. SD rats were rapidly decapitated with a small animal decapitator. After decapitation, brains were taken out quickly and precooled in an ice-water mixture, and the pia mater and vascular tissue were removed. Brain tissue was taken out. 10 times volume (ml/g) of 10 mM Tris HCl buffer (containing 0.32 M sucrose, pH 7.4) was added, an ultrasonic cell pulverizer was used for homogenization (maintaining at a low temperature), and the brain tissue was homogenized and centrifuged for 10 min (4° C., 1,000 g). After balanced centrifugation (1500 g, 10 min) at 4° C., precipitate was discarded, then supernatant was taken, and centrifugation (20000 g) was performed again for 30 min. The supernatant was discarded and the precipitate, i.e. crude extract of synaptic corpuscles, was retained. […] The precipitate was suspended in a small amount of Kreb's buffer (NaCl 118 mM, KCl 4.7 mM, CaCl2) 2.5 mM, MgSO4 1.2 mM, KH2PO4 1.2 mM, NaHCO325 mM and Glucose 11.1 mM, pH 7.2-7.4), BCA method was used for protein quantification, and the operation steps were as described in the description. […]
as §2

[6] = comparative study (Table 13), 20 mg/kg i.g.
[7] = comparative study (Table 13), 2.5 mg/kg i.g.
[8] = dosage exploration study (Table 12), 2.5 mg/kg i.g.

Structure (SMILES): CNCCC(Oc1ccc(C(F)(F)F)cc1)c1ccccc1 (centres unmarked) [fluoxetine, Fluoxetine]
- antidepressant-like effect (C57 BL/6J male mice): no antidepressant-like effect

Structure (SMILES): CC(C)CNC(=O)/C=C/c1cc(I)c2c(c1)OCO2 [Compound II-3]
- Number of times of drinking water (SD rats; 10 mg/kg i.g.): 363.96 ± 145.26
- OE % (ICR mice; [6]): 41.04 ± 9.52 %
- OT % (ICR mice; [6]): 42.99 ± 11.82 %
- effective anxiolytic dosage in mice elevated plus maze experiment (mice [1]): 10 mg/kg

Structure (SMILES): CC(C)CNC(=O)/C=C/c1cc(Cl)c2c(c1)OCO2 [Compound II-4]
- Number of times of drinking water (SD rats; 10 mg/kg i.g.): 387.07 ± 57.31
- OE % (ICR mice; [6]): 46.79 ± 9.31 %
- OT % (ICR mice; [6]): 53.45 ± 8.33 %
- anxiolytic activity in elevated plus maze vs solvent control group (ICR mice; comparative study, single intragastric administration of 20 mg/kg): significant anxiolytic activity
- reserpine-induced body temperature decrease and akinesia in mice, degree of eye closure (mice [2]): significantly antagonizing
- effective anxiolytic dosage in mice elevated plus maze experiment (mice [1]): 10 mg/kg

Structure (SMILES): Clc1ccc2c(c1)C(c1ccccc1)=NCc1nncn1-2 [Estazolam]
- Number of times of drinking water (SD rats; 1.24 mg/kg i.g.): 540.41/kg2.25*
- OE % (ICR mice; [7]): 69.60 ± 15.12 %
- OT % (ICR mice; [7]): 73.46 ± 20.29 %
- OE % (ICR mice; [8]): 42.78 ± 15.27 %
- OT % (ICR mice; [8]): 50.12 ± 12.76 %

Structure (SMILES): CN[C@]1(c2ccccc2Cl)CCCCC1=O [esketamine, Esketamine]
- antidepressant-like effect (C57 BL/6J male mice): had antidepressant-like effect

Structure (SMILES): CNCCCN1c2ccccc2CCc2ccccc21 [Desipramine hydrochloride]
- inhibition of 3H-NA reuptake by synaptosomes [3]: 100%

Structure (SMILES): CCN1CCCC1CNC(=O)c1cc(S(N)(=O)=O)ccc1OC (centres unmarked) [Sulpride]
- blocking of the enhancement effect of 150 μM compound M2 on sEPSC distribution frequency [4]: can block the enhancement effect; also recorded: significantly block

Structure (SMILES): Br.NCCc1cc(O)c(O)cc1O [6-Hydroxydopamine hydrobromide]
- inhibition of 3H-DA reuptake by synaptosomes [5]: 100%
